# From ChEMBL document CHEMBL1165957, “Alkaloids from the bark of Guatteria hispida and their evaluation as antioxidant and antimicrobial agents” (2010)
# Activity calls are given as the source filed them. No cut-off for these calls is given here.
# Assays:
# Type in all cases: functional
# [1] = Antioxidant activity assessed as trolox equivalents of peroxyl radical scavenging activity by ORAC assay; set-up: unit not given here
# Kocuria rhizophila = test: Antimicrobial activity against Kocuria rhizophila ATCC 9341 by broth dilution method
# Staphylococcus aureus [2] = test: Antimicrobial activity against Staphylococcus aureus ATCC 14458 by broth dilution method
# Staphylococcus aureus [3] = test: Antimicrobial activity against Staphylococcus aureus 7+ penicillinase positive + by broth dilution method
# Staphylococcus aureus [4] = test: Antimicrobial activity against Staphylococcus aureus 8- penicillinase negative by broth dilution method
# [5] = test system: Staphylococcus epidermidis; test: Antimicrobial activity against Staphylococcus epidermidis 6ep by broth dilution method
# Escherichia coli = test: Antimicrobial activity against Escherichia coli ATCC 10538 by broth dilution method
# Pseudomonas aeruginosa = test: Antimicrobial activity against Pseudomonas aeruginosa ATCC 27853 by broth dilution method
# Candida albicans = test: Antimicrobial activity against Candida albicans ATCC 10231 by broth dilution method
# Candida tropicalis = test: Antimicrobial activity against Candida tropicalis CT by broth dilution method
# Nakaseomyces glabratus = test: Antimicrobial activity against Candida glabrata ATCC 30070 by broth dilution method
# Candida parapsilosis = test: Antimicrobial activity against Candida parapsilosis ATCC 22019 by broth dilution method
# Candida dubliniensis [6] = test: Antimicrobial activity against Candida dubliniensis ATCC 777 by broth dilution method
# Candida dubliniensis [7] = test: Antimicrobial activity against Candida dubliniensis ATCC 778157 by broth dilution method
Compound,Activity [1],MIC (Kocuria rhizophila),MIC (Staphylococcus aureus [2]),MIC (Staphylococcus aureus [3]),MIC (Staphylococcus aureus [4]),MIC [5],MIC (Escherichia coli),MIC (Pseudomonas aeruginosa),MIC (Candida albicans),MIC (Candida tropicalis),MIC (Nakaseomyces glabratus),MIC (Candida dubliniensis [6]),MIC (Candida dubliniensis [7]),further results
COc1cc2c(cc1O)C[C@H]1c3cc(O)c(OC)cc3CCN1C2,1.4,–,–,–,–,–,–,–,–,–,–,–,–,–
COc1cc2c(cc1O)C[C@H]1c3cc(OC)c(O)cc3CCN1C2,1.67,–,–,–,–,–,–,–,–,–,–,–,–,–
COc1cc2c3c(c1OC)-c1ccccc1CC3NCC2 (configuration not stated),0.27,–,–,–,–,–,–,–,–,–,–,–,–,–
COc1ccc2c(c1)C(=O)c1nccc3c(O)c(OC)c(OC)c-2c13,1.62,–,–,–,–,–,–,–,–,–,–,–,–,–
O=C(O)/C=C/c1ccc(O)c(O)c1,2.95,–,–,–,–,–,–,–,–,–,–,–,–,–
O=c1c(O)c(-c2ccc(O)c(O)c2)oc2cc(O)cc(O)c12,5.62,–,–,–,–,–,–,–,–,–,–,–,–,–
O=c1c(O[C@@H]2O[C@H](CO)[C@@H](O)[C@H](O)[C@H]2O)c(-c2ccc(O)c(O)c2)oc2cc(O)cc(O)c12,5.25,–,–,–,–,–,–,–,–,–,–,–,–,–
O=C(N[C@H](CO)[C@H](O)c1ccc([N+](=O)[O-])cc1)C(Cl)Cl [CHLORAMPHENICOL],–,50 µg/mL,25 µg/mL,25 µg/mL,25 µg/mL,50 µg/mL,50 µg/mL,850 µg/mL,–,–,–,–,–,–
COc1c(OC)c2c3c(nccc3c1OC)C(=O)c1ccccc1-2 [HOMOMOSCHATOLINE],0.5,inactive,inactive,inactive,inactive,25 µg/mL,inactive,inactive,inactive,inactive,inactive,12.5 µg/mL,25 µg/mL,MIC (Candida parapsilosis): inactive
CC(=O)N1CCN(c2ccc(OCC3COC(Cn4ccnc4)(c4ccc(Cl)cc4Cl)O3)cc2)CC1 (configuration not stated) [KETOCONAZOLE],–,–,–,–,–,–,–,–,12.5 µg/mL,12.5 µg/mL,12.5 µg/mL,12.5 µg/mL,12.5 µg/mL,MIC (Candida parapsilosis; Lodderomyces parapsilosis): 12.5 µg/mL
O=C1c2ccccc2-c2c3c(cc4ccnc1c24)OCO3 [LIRIODENINE],0.3,inactive,inactive,inactive,inactive,50 µg/mL,inactive,inactive,inactive,inactive,inactive,50 µg/mL,100 µg/mL,MIC (Candida parapsilosis): inactive
COc1cc2ccnc3c2c(c1OC)-c1ccccc1C3=O [LYSICAMINE],0.86,inactive,inactive,inactive,inactive,50 µg/mL,inactive,inactive,inactive,inactive,inactive,100 µg/mL,100 µg/mL,MIC (Candida parapsilosis): inactive
